Results from patent US4479951A, “1.4;3.6-Dianhydrohexitol nitrates substituted by purine bases, processes for their preparation and pharmaceutical compositions” (Dr. Willmar Schwabe GmbH & Co., priority 1980, dated 1984).

Test system: mongrel dogs
Assay: circulatory-pharmacological effectiveness on the narcotised dog, intravenous administration
Assay type: in vivo

## Nc1ncnc2c1ncn2[C@H]1CO[C@H]2[C@@H]1OC[C@@H]2O[N+](=O)[O-] [1c/2c, 5-(9-Adenyl)-5-desoxy-1.4;3.6-dianhydro-L-iditol 2-nitrate]
15 min after i.v. 1 mg/kg
  APdiast: diastolic aorta pressure: 80.6 mm.Hg
  APsyst: systolic aorta pressure: 120.4 mm.Hg
  BFFem: blood flow in the A. femoralis, referred to 20 kg. body weight: 39.9 mL/min
  HF: heart frequency: 133.0 min⁻¹
  HLL: heart capacity left, referred to 20 kg. body weight: 0.72 W
  HLR: heart capacity right, referred to 20 kg. body weight: 87.3 mW
  HZV: heart minute volume, referred to 20 kg. body weight: 3.61 L/min
  LVEDP: end diastolic pressure in the left ventricle: 3.37 mm.Hg
  PAP: average pressure in the A. pulmonalis: 14.0 ±1.9 mm.Hg
  PRA: pressure in the right atrium: 3.24 mm.Hg
  SV: beat volume, referred to 20 kg. body weight: 29.3 mL
  WAP: pulmonalis resistance, referred to 20 kg. body weight: 0.40 U
  WFem: femoralis resistance, referred to 20 kg. body weight: 0.32 KU
  WTP: total peripheral resistance, referred to 20 kg. body weight: 3.41 U
  dp/dt: rate of pressure increase in the left ventricle: 2250.0 mm.Hg/sec.
20 min after i.v. 1 mg/kg
  APdiast: diastolic aorta pressure: 79.1 mm.Hg
  APsyst: systolic aorta pressure: 121.5 mm.Hg
  BFFem: blood flow in the A. femoralis, referred to 20 kg. body weight: 41.2 mL/min
  HF: heart frequency: 129.7 min⁻¹
  HLL: heart capacity left, referred to 20 kg. body weight: 0.72 W
  HLR: heart capacity right, referred to 20 kg. body weight: 87.7 mW
  HZV: heart minute volume, referred to 20 kg. body weight: 3.66 L/min
  LVEDP: end diastolic pressure in the left ventricle: 3.56 mm.Hg
  PAP: average pressure in the A. pulmonalis: 13.8 ±1.7 mm.Hg
  PRA: pressure in the right atrium: 3.30 mm.Hg
  SV: beat volume, referred to 20 kg. body weight: 30.0 mL
  WAP: pulmonalis resistance, referred to 20 kg. body weight: 0.37 U
  WFem: femoralis resistance, referred to 20 kg. body weight: 0.31 KU
  WTP: total peripheral resistance, referred to 20 kg. body weight: 3.32 U
  dp/dt: rate of pressure increase in the left ventricle: 2231.2 mm.Hg/sec.
25 min after i.v. 1 mg/kg
  APdiast: diastolic aorta pressure: 80.6 mm.Hg
  APsyst: systolic aorta pressure: 122.8 mm.Hg
  BFFem: blood flow in the A. femoralis, referred to 20 kg. body weight: 42.2 mL/min
  HF: heart frequency: 125.7 min⁻¹
  HLL: heart capacity left, referred to 20 kg. body weight: 0.74 W
  HLR: heart capacity right, referred to 20 kg. body weight: 90.0 mW
  HZV: heart minute volume, referred to 20 kg. body weight: 3.7 L/min
  LVEDP: end diastolic pressure in the left ventricle: 4.03 mm.Hg
  PAP: average pressure in the A. pulmonalis: 14.0 ±1.8 mm.Hg
  PRA: pressure in the right atrium: 3.28 mm.Hg
  SV: beat volume, referred to 20 kg. body weight: 31.3 mL
  WAP: pulmonalis resistance, referred to 20 kg. body weight: 0.36 U
  WFem: femoralis resistance, referred to 20 kg. body weight: 0.31 KU
  WTP: total peripheral resistance, referred to 20 kg. body weight: 3.33 U
  dp/dt: rate of pressure increase in the left ventricle: 2175.0 mm.Hg/sec.
30 min after i.v. 1 mg/kg
  APdiast: diastolic aorta pressure: 79.7 mm.Hg
  APsyst: systolic aorta pressure: 122.8 mm.Hg
  BFFem: blood flow in the A. femoralis, referred to 20 kg. body weight: 43.9 mL/min
  HF: heart frequency: 122.7 min⁻¹
  HLL: heart capacity left, referred to 20 kg. body weight: 0.73 W
  HLR: heart capacity right, referred to 20 kg. body weight: 84.9 mW
  HZV: heart minute volume, referred to 20 kg. body weight: 3.63 L/min
  LVEDP: end diastolic pressure in the left ventricle: 4.31 mm.Hg
  PAP: average pressure in the A. pulmonalis: 14.1 ±1.8 mm.Hg
  PRA: pressure in the right atrium: 3.52 mm.Hg
  SV: beat volume, referred to 20 kg. body weight: 31.6 mL
  WAP: pulmonalis resistance, referred to 20 kg. body weight: 0.36 U
  WFem: femoralis resistance, referred to 20 kg. body weight: 0.29 KU
  WTP: total peripheral resistance, referred to 20 kg. body weight: 3.32 U
  dp/dt: rate of pressure increase in the left ventricle: 2184.4 mm.Hg/sec.
